Data from patent publication US8232274B2, “Pyridazinone derivatives useful as glucan synthase inhibitors” (Albany Molecular Research, Inc., priority 2007, dated 2012).

Legend:
glucan synthase [1] = biological target: T1, glucan synthase (Candida albicans, UniProt O13428); experiment: β(1,3) glucan synthase assay, C. albicans BWP17 membrane preparation (IC50); type: biochemical; conditions: in vitro fungal enzyme activity assay, read-out: IC50 (μg/mL) Candida albicans (converted)
T1 construct: glucan synthase sources (2 μL permeabilized PM503 cells, or 3 μL membrane preparations from either PM503, BWP17, or ND158); endogenous in cells; host or cells: C. albicans strain BWP17, 100,000 g membrane fraction
T1 sequence (O13428 1-1897): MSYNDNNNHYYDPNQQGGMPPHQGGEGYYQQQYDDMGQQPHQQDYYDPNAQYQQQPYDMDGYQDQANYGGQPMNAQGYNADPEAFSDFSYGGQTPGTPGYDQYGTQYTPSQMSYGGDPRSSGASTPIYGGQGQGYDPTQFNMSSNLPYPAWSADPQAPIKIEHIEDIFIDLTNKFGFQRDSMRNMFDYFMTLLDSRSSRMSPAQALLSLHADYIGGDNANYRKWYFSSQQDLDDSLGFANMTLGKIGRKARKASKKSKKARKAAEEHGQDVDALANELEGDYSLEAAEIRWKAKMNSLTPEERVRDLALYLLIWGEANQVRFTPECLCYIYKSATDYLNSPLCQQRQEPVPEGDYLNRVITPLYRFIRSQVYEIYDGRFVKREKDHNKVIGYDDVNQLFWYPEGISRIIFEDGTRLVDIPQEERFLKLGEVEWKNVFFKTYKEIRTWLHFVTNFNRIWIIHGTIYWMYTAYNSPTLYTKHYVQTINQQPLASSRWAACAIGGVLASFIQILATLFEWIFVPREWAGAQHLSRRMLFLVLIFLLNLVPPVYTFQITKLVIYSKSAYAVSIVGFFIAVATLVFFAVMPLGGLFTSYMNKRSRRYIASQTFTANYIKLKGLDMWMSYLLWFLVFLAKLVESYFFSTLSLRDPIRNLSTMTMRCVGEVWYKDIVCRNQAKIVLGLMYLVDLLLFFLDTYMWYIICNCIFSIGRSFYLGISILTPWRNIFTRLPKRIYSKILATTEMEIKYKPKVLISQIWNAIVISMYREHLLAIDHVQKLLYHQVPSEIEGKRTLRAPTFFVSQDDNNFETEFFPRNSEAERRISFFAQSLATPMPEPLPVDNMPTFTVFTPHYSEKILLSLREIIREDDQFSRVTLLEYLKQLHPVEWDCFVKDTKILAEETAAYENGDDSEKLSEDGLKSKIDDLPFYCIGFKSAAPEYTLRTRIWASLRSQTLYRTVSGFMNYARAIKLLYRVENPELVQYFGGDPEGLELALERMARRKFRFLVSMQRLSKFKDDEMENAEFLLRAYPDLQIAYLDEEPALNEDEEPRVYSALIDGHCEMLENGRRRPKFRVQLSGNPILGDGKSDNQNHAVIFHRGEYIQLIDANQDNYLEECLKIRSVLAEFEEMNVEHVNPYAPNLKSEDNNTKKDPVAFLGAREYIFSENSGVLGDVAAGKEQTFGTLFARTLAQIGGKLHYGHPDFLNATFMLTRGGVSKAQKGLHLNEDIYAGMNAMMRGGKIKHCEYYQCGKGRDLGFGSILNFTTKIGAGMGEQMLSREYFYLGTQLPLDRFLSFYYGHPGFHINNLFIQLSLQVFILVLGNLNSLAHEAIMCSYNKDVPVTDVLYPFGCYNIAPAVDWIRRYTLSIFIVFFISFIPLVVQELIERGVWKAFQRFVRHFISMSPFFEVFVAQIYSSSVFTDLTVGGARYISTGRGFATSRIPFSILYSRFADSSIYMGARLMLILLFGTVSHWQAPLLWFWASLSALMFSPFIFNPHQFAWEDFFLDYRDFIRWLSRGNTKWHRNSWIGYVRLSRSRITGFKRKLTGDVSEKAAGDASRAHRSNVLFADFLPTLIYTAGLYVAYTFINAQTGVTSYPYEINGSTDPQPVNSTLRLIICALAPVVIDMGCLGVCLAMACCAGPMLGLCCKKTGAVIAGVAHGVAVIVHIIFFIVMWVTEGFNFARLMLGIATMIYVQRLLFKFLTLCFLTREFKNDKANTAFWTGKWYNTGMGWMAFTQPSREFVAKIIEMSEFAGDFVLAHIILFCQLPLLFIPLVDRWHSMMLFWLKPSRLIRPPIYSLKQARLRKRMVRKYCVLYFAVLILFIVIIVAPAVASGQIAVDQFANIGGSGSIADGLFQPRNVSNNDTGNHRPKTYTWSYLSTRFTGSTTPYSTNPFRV
T1 sequence (O42825 1-195 partner limits assumed): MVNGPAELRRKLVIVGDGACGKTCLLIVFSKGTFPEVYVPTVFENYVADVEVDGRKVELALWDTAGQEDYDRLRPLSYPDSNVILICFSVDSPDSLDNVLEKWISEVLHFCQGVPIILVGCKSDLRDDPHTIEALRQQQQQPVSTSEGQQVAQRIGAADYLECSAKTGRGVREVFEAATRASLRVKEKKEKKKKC
Experimental: (§1) β(1,3) Glucan Synthase Assay:
(§2) 2. Preparation of Membrane Fraction of Yeast Cells
(§3) The protocol was modified from Douglas et al. (Journal of Bacteriology, 176, 5686-5696, 1994). For the preparation of S. cerevisiae and C. albicans membrane fractions, 1 liter of YPD supplemented with 0.02 mg/mL adenine and 0.08 mg/mL uracil was inoculated with 10 mL starter culture of PM503 (OD600=4) or the C. albicans strain BWP17 (OD600=12) in the same medium and grown at 30° C. until OD600 reached about 1. A. fumigatus (stain ND158) membranes were prepared by first preparing a spore suspension from agar slants by adding 6 mL of sterile saline, 0.1% Tween-20 solution to each slant, and resuspending by pipetting and scraping. The spore suspensions were used to inoculate two 200 mL flasks containing Sabouraud dextrose broth media. Cultures were incubated at 37° C., 250 rpm for ˜8 hrs. All cells, S. cerevisiae, C. albicans or A. fumigatus were harvested by centrifugation at 5,300 g at 4° C. for 40 minutes. After washing with 100 mL of breakage buffer (0.1 M KPi, pH 7.0, 1 mM EDTA, 1 mM DTT), the cell pellet was resuspended in 50 ml ice-cold breakage buffer. The mixture was transferred to a bead-beater chamber packed in ice (BioSpec Products, Bartlesville, Okla.). To each 50 mL sample was added 50 g of acid-washed glass beads ([…], Sigma). Cells were disrupted using 12×20 second pulses with 2 min-cooling intervals. Cell debris was removed by centrifugation at 3,000 g for 20 minutes at 4° C., and the supernatant was collected and centrifuged at 100,000 g for 1 hour at 4° C. to pellet the membrane fraction. The pellet was resuspended in 5 mL of ice-cold breakage buffer containing 25% glycerol, homogenized with a Dounce tissue homogenizer and stored at −80° C. in small aliquots.
(§4) 3. Glucan Synthase Assay and Compound Screening
The assay was performed according to Mo et at (Journal of Biological Chemistry, 269, 31267-31274, 1994) and Taft et al. (The Journal of Antibiotics, 47, 1001-1009, 1994), in a 96-well Optiplate (PerkinElmer). To each well was added 3 μL 10× compound stock (in 100% DMSO), or 3 μL of 30 μg/mL caspofungin in 100% DMSO (as positive control), or 3 μL 100% DMSO (as negative control), followed by the addition of appropriate amount of glucan synthase sources (2 μL permeabilized PM503 cells, or 3 μL membrane preparations from either PM503, BWP17, or ND158). The reaction was initiated by adding 25 μL reaction buffer (0.6 mM UDP-Glucose 0.6 nCi [U-^14C]DUP-Glucose (327 mCi/mmol, Amersham Bioscience), 20 μM GTP-γ-S, 25 mM NaF, 7.5 mg/mL BSA, 8% glycerol in 75 mM Tris-HCl, pH 7.5). The plate was incubated on a shaker for 1.5 hour at room temperature before being quenched with 250 μL 1% TCA (Trichloroacetic Acid). The quenched reaction was mixed by pipetting, and immediately transferred to a 96-well filter plate (Glass fiber B on 0.65 μm hydrophilic durapore membrane, Millipore) pre-wetted with wash buffer (5% TCA, 60 mM NaPPi). The glucan product was retained on the filter membrane by applying vacuum to the plate using a MultiScreen Resist Vacuum Manifold (Millipore). The filter plate was further washed 4 times with 200 μL wash buffer. The plate was dried at 50° C. for 30 minutes. 100 μL of Microscint-0 (PerkinElmer) was added to each well, and plate was counted in a TopCount NXT plate reader (PerkinElmer).
Dose-response curves were plotted from inhibition data generated. IC50 was determined by fitting the CPM versus the Concentration of the test compound plot with the following equation (4-parameter logistic model, ID Business Solutions XLfit 4.2).

glucan synthase [2] = biological target: T2, glucan synthase (Saccharomyces cerevisiae, UniProt P38631); experiment: β(1,3) glucan synthase assay, S. cerevisiae PM503 permeabilized cells or membrane preparation (IC50); type: biochemical
T2 construct: glucan synthase sources (2 μL permeabilized PM503 cells, or 3 μL membrane preparations from either PM503, BWP17, or ND158); endogenous in cells; host or cells: S. cerevisiae strain PM503, permeabilized cells or 100,000 g membrane fraction
T2 sequence (P06780 1-206): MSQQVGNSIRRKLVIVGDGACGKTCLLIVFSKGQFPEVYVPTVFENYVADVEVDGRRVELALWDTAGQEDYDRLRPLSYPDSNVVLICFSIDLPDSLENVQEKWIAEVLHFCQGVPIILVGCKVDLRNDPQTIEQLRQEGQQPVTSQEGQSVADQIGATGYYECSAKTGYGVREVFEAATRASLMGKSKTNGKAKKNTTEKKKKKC
T2 sequence (P38631 whole entry): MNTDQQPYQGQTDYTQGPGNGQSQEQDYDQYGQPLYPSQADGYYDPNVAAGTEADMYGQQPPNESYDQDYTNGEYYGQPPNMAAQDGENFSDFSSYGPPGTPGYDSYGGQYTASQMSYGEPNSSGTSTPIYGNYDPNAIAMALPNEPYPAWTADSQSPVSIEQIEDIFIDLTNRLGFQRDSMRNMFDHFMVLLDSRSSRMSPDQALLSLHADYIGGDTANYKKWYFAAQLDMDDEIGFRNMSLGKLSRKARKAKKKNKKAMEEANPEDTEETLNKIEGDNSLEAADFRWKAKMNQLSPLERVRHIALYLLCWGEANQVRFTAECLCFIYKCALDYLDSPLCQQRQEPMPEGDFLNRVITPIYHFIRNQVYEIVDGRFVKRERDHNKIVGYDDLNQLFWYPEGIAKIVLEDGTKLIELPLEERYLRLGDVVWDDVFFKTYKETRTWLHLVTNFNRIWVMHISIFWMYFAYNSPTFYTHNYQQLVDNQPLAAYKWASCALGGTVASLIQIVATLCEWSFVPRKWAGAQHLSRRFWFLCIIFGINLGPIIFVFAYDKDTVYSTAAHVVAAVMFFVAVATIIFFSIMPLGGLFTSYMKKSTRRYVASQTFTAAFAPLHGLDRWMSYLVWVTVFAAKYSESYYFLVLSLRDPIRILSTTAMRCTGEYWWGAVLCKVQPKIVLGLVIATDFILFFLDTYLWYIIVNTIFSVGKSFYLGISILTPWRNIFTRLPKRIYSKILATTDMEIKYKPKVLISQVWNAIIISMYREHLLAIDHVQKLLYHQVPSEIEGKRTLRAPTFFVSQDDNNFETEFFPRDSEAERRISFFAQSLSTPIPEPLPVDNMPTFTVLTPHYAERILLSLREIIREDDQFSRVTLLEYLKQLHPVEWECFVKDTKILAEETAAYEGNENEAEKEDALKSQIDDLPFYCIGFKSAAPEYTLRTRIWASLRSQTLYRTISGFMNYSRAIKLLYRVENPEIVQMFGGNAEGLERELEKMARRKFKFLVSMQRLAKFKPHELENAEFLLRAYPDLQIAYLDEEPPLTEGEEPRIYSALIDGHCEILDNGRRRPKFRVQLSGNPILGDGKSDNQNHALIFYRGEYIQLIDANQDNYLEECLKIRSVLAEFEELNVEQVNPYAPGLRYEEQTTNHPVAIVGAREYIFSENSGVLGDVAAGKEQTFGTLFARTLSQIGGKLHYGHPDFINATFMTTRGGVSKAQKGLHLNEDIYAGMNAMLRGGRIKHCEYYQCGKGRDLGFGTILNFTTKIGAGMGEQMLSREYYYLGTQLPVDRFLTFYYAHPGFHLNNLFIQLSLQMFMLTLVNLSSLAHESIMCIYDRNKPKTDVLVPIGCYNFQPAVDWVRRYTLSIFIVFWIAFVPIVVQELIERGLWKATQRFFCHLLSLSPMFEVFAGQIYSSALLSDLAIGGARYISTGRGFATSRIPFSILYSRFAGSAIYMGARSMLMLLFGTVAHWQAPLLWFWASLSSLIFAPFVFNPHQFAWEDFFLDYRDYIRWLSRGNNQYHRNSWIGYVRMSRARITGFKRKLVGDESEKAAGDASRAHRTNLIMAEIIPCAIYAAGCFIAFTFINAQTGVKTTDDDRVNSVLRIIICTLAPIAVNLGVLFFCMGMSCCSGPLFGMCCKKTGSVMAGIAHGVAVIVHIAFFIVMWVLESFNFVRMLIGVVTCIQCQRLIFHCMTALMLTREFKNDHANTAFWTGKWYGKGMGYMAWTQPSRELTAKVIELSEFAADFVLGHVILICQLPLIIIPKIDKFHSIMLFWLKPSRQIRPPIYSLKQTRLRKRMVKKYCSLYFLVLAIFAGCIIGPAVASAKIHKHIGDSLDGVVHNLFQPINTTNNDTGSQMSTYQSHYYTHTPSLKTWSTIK
Experimental: as §1
1. Preparation of Permeabilized Saccharomyces cerevisiae Cells.
Permeabilization of yeast cells was performed according to Crotti et al. (Analytical Biochemistry, 292, 8-16, 2001) with some modifications. A 10 ml-starter culture of the S. cerevisiae strain in YPD medium (1% yeast extract, 2% bacto-peptone, 2% dextrose) with OD600=3-4 was used to inoculate 1 liter of YPD. The culture was grown at 30° C. until […]. Cells were collected by centrifugation (5,300 g for 15 min at 4° C.) and resuspended in buffer (40 mM EDTA, 100 mM β-mercaptoethanol) at 1 g of cell pellet/3.5 ml buffer. The cell suspension was shaken for 30 min at 30° C., followed by centrifugation at 12,000 g for 10 min at 4° C. The cell pellet was washed with 5 ml 0.8 M sorbitol and resuspended in 6.8 ml of 2.9 mM citric acid, 11.3 mM dibasic sodium phosphate, 1 mM EDTA, 0.8 M sorbitol, with constant shaking at 30)C for 30 min. After centrifugation at 12,000 g for […] at 4° C., the pellet was resuspended in 31.3 ml 50 mM Tris-HCl, pH 7.0, and incubated on ice for 5 min. The mixture was then centrifuged at 12,000 g for 10 min at 4 AC, and the pellet was resuspended in 1 ml of 50 mM Tris-HCl and 33% glycerol, pH 7.5. The permeabilized cell preparation was stored at […] in aliquots.
as §2, §3, §4
The assay was performed according to Mo et at (Journal of Biological Chemistry, 269, 31267-31274, 1994) and Taft et al. (The Journal of Antibiotics, 47, 1001-1009, 1994), in a 96-well Optiplate (PerkinElmer). To each well was added 3 μL 10× compound stock (in 100% DMSO), or 3 μL of 30 μg/mL caspofungin in 100% DMSO (as positive control), or 3 μL 100% DMSO (as negative control), followed by the addition of appropriate amount of glucan synthase sources (2 μL permeabilized PM503 cells, or 3 μL membrane preparations from either PM503, BWP17, or ND158). The reaction was initiated by adding 25 μL reaction buffer (0.6 mM UDP-Glucose 0.6 nCi [U-^14C]DUP-Glucose (327 mCi/mmol, Amersham Bioscience), 20 μM GTP-γ-S, 25 mM NaF, 7.5 mg/mL BSA, 8% glycerol in 75 mM Tris-HCl, pH 7.5). […]

SMILES	IC50 (glucan synthase [1]) [nM]	IC50 (glucan synthase [2]) [nM]
CC1(COc2c(N3CCN(S(=O)(=O)Cc4ccccc4)CC3)cnn(-c3cccc(Cl)c3)c2=O)CC1 [1035Z]	56.7	75.6
O=c1c(OCC2(CF)CC2)c(N2CCN(S(=O)(=O)Cc3ccccc3)CC2)cnn1-c1cccc(Cl)c1 [1122Z]	54.8	54.8
O=c1c(OC2Cc3ccccc3CC2F)c(N2CCN(S(=O)(=O)CF)CC2)cnn1-c1cc(F)cc(F)c1 (stereo not drawn) [1267Z]	633	199
O=c1c(OC2CCCC2)c(N2CCN(S(=O)(=O)Cc3ccccc3)CC2)cnn1-c1cccc(F)c1 [1402Z]	117	39
Nc1ccc(CS(=O)(=O)N2CCN(c3cnn(-c4cc(F)cc(F)c4)c(=O)c3OC3CCC(F)C3)CC2)cc1 (stereo not drawn) [1529Z-6]	106	35.5
Nc1ccc(CS(=O)(=O)N2CCN(c3cnn(-c4cccc(Cl)c4)c(=O)c3OCc3ccccc3)CC2)cc1 [1529Z-19]	230	70.7
CC1(COc2c(N3CCN(S(=O)(=O)Cc4ccc(Br)cc4)CC3)cnn(-c3cc(F)cc(F)c3)c2=O)CC1 [1529Z-33]	32.8	16.4
CC1(COc2c(N3CCN(S(=O)(=O)Cc4cccc(N)c4)CC3)cnn(-c3cc(F)cc(F)c3)c2=O)CC1 [1529Z-40]	55	55
CC1(COc2c(N3CCN(S(=O)(=O)Cc4ccc(C#N)cc4)CC3)cnn(-c3cccc(Cl)c3)c2=O)CC1 [1529Z-56]	108	307
CC1CCC(Oc2c(N3CCN(S(=O)(=O)Cc4cccc(N)c4)CC3)cnn(-c3ccccc3)c2=O)C1 (stereo not drawn) [1529Z-70]	153	134
Nc1ccc(CS(=O)(=O)N2CCN(c3cnn(-c4cccc(Cl)c4)c(=O)c3OCC3CCC3)CC2)cc1 [1529Z-73]	349	165
O=c1c(OCc2cccc(F)c2)c(N2CCN(S(=O)(=O)Cc3ccccc3)CC2)cnn1-c1cc(F)cc(F)c1 [1529Z-150]	175	70.1
CC(C)(C)COc1c(N2CCN(S(=O)(=O)Cc3cccc(N)c3)CC2)cnn(-c2cccc(Cl)c2)c1=O [1529Z-151]	165	128
CC(C)(C)COc1c(N2CCN(S(=O)(=O)Cc3ccc(N)cc3)CC2)cnn(-c2cc(F)cc(F)c2)c1=O [1529Z-174]	183	128
O=c1c(OCC2CC2(F)F)c(N2CCN(S(=O)(=O)Cc3ccccc3)CC2)cnn1-c1cc(F)cc(F)c1 (stereo not drawn) [1529Z-180]	5.43	1.81
CC1CC1COc1c(N2CCN(S(=O)(=O)Cc3ccccc3)CC2)cnn(-c2cc(F)cc(F)c2)c1=O (stereo not drawn) [1529Z-182]	18.8	1.88
O=c1c(OCC2CC2)c(N2CCN(S(=O)(=O)Cc3ccccc3)CC2)cnn1-c1cccc(Cl)c1 [1529Z-185]	38.8	11.6
CC(C)(C)COc1c(N2CCN(S(=O)(=O)Cc3cccc(N)c3)CC2)cnn(-c2cc(F)cc(F)c2)c1=O [1529Z-190]	219	91.3
CC1(COc2c(N3CCN(S(=O)(=O)Cc4ccccc4)CC3)cnn(-c3cc(F)cc(F)c3)c2=O)CC1 [1529Z-191]	37.7	207
O=c1c(OC2CCCC2)c(N2CCN(S(=O)(=O)NCc3ccccc3)CC2)cnn1-c1cc(F)cc(F)c1 [1629Z]	91.6	36.7
COc1ccc(CNS(=O)(=O)N2CCN(c3cnn(-c4cc(F)cc(F)c4)c(=O)c3OCC3(C)CC3)CC2)cc1 [1633Z]	86.9	139
CC1(COc2c(N3CCN(S(=O)(=O)NCc4ccc(N)cc4)CC3)cnn(-c3cc(F)cc(F)c3)c2=O)CC1 [1634Z]	196	303
CC1(COc2c(N3CCN(S(=O)(=O)NCc4ccc(Cl)nc4)CC3)cnn(-c3cccc(Cl)c3)c2=O)CC1 [1675Z]	345	138
Cc1ccc(CNS(=O)(=O)N2CCN(c3cnn(-c4cccc(Cl)c4)c(=O)c3OCC3(C)CC3)CC2)cc1N [1683Z]	122	140
